Columns and labels:
[1] = system: Plutella xylostella (diamond back moth); assay: Insecticidal action against Plutella xylostella (diamond back moth), treated artificial diet; assay type: in vivo; conditions: 120 h, application rate of 200 ppm, L2 larvae, 5 days after infestation, read-out: effect in at least one of the two categories (mortality or growth inhibition)
Procedure: 24-well microtiter plates with artificial diet were treated with aqueous test solutions prepared from 10,000 ppm DMSO stock solutions by pipetting. After drying, the plates were infested with L2 larvae (10 to 15 per well). The samples were assessed for mortality and growth inhibition in comparison to untreated samples 5 days after infestation.

[2] = system: Spodoptera littoralis (Egyptian cotton leaf worm); assay: Insecticidal action against Spodoptera littoralis (Egyptian cotton leaf worm), sprayed cotton leaf discs; assay type: in vivo; conditions: foliar, 72 h, application rate of 200 ppm, L1 larvae, 3 days after infestation, read-out: control (at least one of mortality, anti-feedant effect, and growth inhibition)
Procedure: Cotton leaf discs were placed on agar in 24-well microtiter plates and sprayed with aqueous test solutions prepared from 10,000 ppm DMSO stock solutions. After drying the leaf discs were infested with five L1 larvae. The samples were assessed for mortality, anti-feedant effect, and growth inhibition in comparison to untreated samples 3 days after infestation. Control of Spodoptera littoralis by a test sample is when at least one of mortality, anti-feedant effect, and growth inhibition is higher than the untreated sample.

[3] = system: Diabrotica balteata (corn root worm); assay: Insecticidal action against Diabrotica balteata (corn root worm), sprayed maize sprouts; assay type: in vivo; conditions: 96 h, application rate of 200 ppm, L2 larvae, 4 days after infestation
Procedure: Maize sprouts, placed on an agar layer in 24-well microtiter plates were treated with aqueous test solutions prepared from 10,000 ppm DMSO stock solutions by spraying. After drying, the plates were infested with L2 larvae (6 to 10 per well). The samples were assessed for mortality 4 days after infestation.

[4] = system: Myzus persicae (green peach aphid); assay: Insecticidal action against Myzus persicae (green peach aphid), sprayed sunflower leaf discs; assay type: in vivo; conditions: foliar, 144 h, application rate of 200 ppm, aphid population of mixed ages, 6 days after infestation
Procedure: Sunflower leaf discs were placed on agar in a 24-well microtiter plate and sprayed with aqueous test solutions prepared from 10,000 ppm DMSO stock solutions. After drying, the leaf discs were infested with an aphid population of mixed ages. The samples were assessed for mortality 6 days after infestation.

[5] = system: Spodoptera littoralis (Egyptian cotton leaf worm); assay: Insecticidal action against Spodoptera littoralis (Egyptian cotton leaf worm), uptake by lettuce roots from agar; assay type: in vivo; conditions: 144 h, test rate of 12.5 ppm, 6 days after infestation, read-out: effect in at least one of the three categories (mortality, anti-feedancy, or growth inhibition)
Excerpt: Test compounds were applied by pipette from 10,000 ppm DMSO stock solutions into 24-well plates and mixed with agar. Lettuce seeds were placed on the agar and the multi well plate was closed by another plate which contains also agar. After 7 days the roots have absorbed the compound and the lettuce has grown into the lid plate. The lettuce leafs were now cut off into the lid plate. Spodoptera eggs were pipetted through a plastic stencil on a humid gel blotting paper and the plate closed with it. The samples were assessed for mortality, anti-feedant effect and growth inhibition in comparison to untreated samples 6 days after infestation.

Row | Compound | percent effect (mortality or growth inhibition) at 200 ppm [1] | mortality at 200 ppm [2] | mortality at 200 ppm [3] | melting point | also measured
1 | CCS(=O)(=O)c1cc(C(F)(F)F)ccc1-c1nnc(-c2ccc(C(F)(F)F)nc2)s1 [Compound P1, 2-[2-ethylsulfonyl-4-(trifluoromethyl)phenyl]-5-[6-(trifluoromethyl)-3-pyridyl]-1,3,4-thiadiazole] | ≥ 80% | ≥ 80% | ≥ 80% |  | 
2 | CCSc1cc(C(F)(F)F)ccc1-c1nnc(-c2ccc(C(F)(F)F)nc2)s1 [Compound P2, 2-[2-ethylsulfanyl-4-(trifluoromethyl)phenyl]-5-[6-(trifluoromethyl)-3-pyridyl]-1,3,4-thiadiazole] |  |  |  | 170 to 172 °C | 
3 | CCSc1cc(C(F)(F)F)ccc1-c1nnc(-c2cncc(C(F)(F)F)c2)s1 [Compound P3, 2-[2-ethylsulfanyl-4-(trifluoromethyl)phenyl]-5-[5-(trifluoromethyl)-3-pyridyl]-1,3,4-thiadiazole] |  |  |  | 143 to 145 °C | 
4 | CCS(=O)(=O)c1cc(C(F)(F)F)ccc1-c1nnc(-c2cncc(C(F)(F)F)c2)s1 [Compound P4, 2-[2-ethylsulfonyl-4-(trifluoromethyl)phenyl]-5-[5-(trifluoromethyl)-3-pyridyl]-1,3,4-thiadiazole] | ≥ 80% | ≥ 80% | ≥ 80% |  | mortality at 200 ppm [4]: ≥ 80%; percent control (mortality, anti-feedancy or growth inhibition) at 12.5 ppm [5]: ≥ 80%
5 | CCSc1cc(C(F)(F)F)cnc1-c1nnc(-c2cncc(C(F)(F)F)c2)s1 [Compound P5, 2-[3-ethylsulfanyl-5-(trifluoromethyl)-2-pyridyl]-5-[5-(trifluoromethyl)-3-pyridyl]-1,3,4-thiadiazole] |  |  |  | 151 to 153 °C | 
6 | CCS(=O)(=O)c1cc(C(F)(F)F)cnc1-c1nnc(-c2cncc(C(F)(F)F)c2)s1 [Compound P6, 2-[3-ethylsulfonyl-5-(trifluoromethyl)-2-pyridyl]-5-[5-(trifluoromethyl)-3-pyridyl]-1,3,4-thiadiazole] | ≥ 80% | ≥ 80% | ≥ 80% |  | 
7 | CCSc1cc(C(F)(F)F)ccc1-c1ncc(-c2ccc(C(F)(F)F)nc2)s1 [Compound P7, 2-[2-ethylsulfanyl-4-(trifluoromethyl)phenyl]-5-[6-(trifluoromethyl)-3-pyridyl]thiazole] | ≥ 80% |  |  |  | 
8 | CCS(=O)(=O)c1cc(C(F)(F)F)ccc1-c1ncc(-c2ccc(C(F)(F)F)nc2)s1 [Compound P8, 2-[2-ethylsulfonyl-4-(trifluoromethyl)phenyl]-5-[6-(trifluoromethyl)-3-pyridyl]thiazole] | ≥ 80% | ≥ 80% | ≥ 80% |  | 
9 | CCS(=O)(=O)c1cc(C(F)(F)F)ccc1-c1ncc(-c2cncc(C(F)(F)F)c2)s1 [Compound P9, 2-[2-ethylsulfonyl-4-(trifluoromethyl)phenyl]-5-[5-(trifluoromethyl)-3-pyridyl]thiazole] |  | ≥ 80% | ≥ 80% |  | 
10 | CCS(=O)(=O)c1cc(C(F)(F)F)cnc1-c1nnc(-c2cc(C(F)(F)F)ccn2)s1 [Compound P10, 2-[3-ethylsulfonyl-5-(trifluoromethyl)-2-pyridyl]-5-[4-(trifluoromethyl)-2-pyridyl]-1,3,4-thiadiazole] |  | ≥ 80% | ≥ 80% |  | 
11 | CCS(=O)(=O)c1cc(C(F)(F)F)cnc1-c1nccs1 [Compound P11, 2-[3-ethylsulfonyl-5-(trifluoromethyl)-2-pyridyl]thiazole] |  |  |  | 110 to 112 °C | 
12 | CCS(=O)(=O)c1cc(C(F)(F)F)cnc1-c1ncc(-c2cc(C(F)(F)F)ccn2)s1 [Compound P12, 2-[3-ethylsulfonyl-5-(trifluoromethyl)-2-pyridyl]-5-[4-(trifluoromethyl)-2-pyridyl]thiazole] |  |  |  | 173 to 175 °C | 
13 | CCS(=O)(=O)c1cc(C(F)(F)F)cnc1-c1ncc(-c2ccc(C(F)(F)F)cn2)s1 [Compound P13, 2-[3-ethylsulfonyl-5-(trifluoromethyl)-2-pyridyl]-5-[5-(trifluoromethyl)-2-pyridyl]thiazole] |  |  |  | 208 to 210 °C | 
14 | CCS(=O)(=O)c1cc(C(F)(F)F)cnc1-c1ncc(-c2cncc(C(F)(F)F)c2)s1 [Compound P14, 2-[3-ethylsulfonyl-5-(trifluoromethyl)-2-pyridyl]-5-[5-(trifluoromethyl)-3-pyridyl]thiazole] |  | ≥ 80% |  |  | 
15 | CCS(=O)(=O)c1cc(C(F)(F)F)cnc1-c1ncc(-c2ccc(C(F)(F)F)nc2)s1 [Compound P15, 2-[3-ethylsulfonyl-5-(trifluoromethyl)-2-pyridyl]-5-[6-(trifluoromethyl)-3-pyridyl]thiazole] |  |  |  | 228 to 230 °C | 
16 | CCS(=O)(=O)c1cc(-c2ncccn2)cnc1-c1nnc(-c2cncc(C(F)(F)F)c2)s1 [Compound P16, 2-(3-ethylsulfonyl-5-pyrimidin-2-yl-2-pyridyl)-5-[5-(trifluoromethyl)-3-pyridyl]-1,3,4-thiadiazole] |  |  | ≥ 80% |  | 
17 | CCS(=O)(=O)c1ccc(-c2ncccn2)nc1-c1nnc(-c2cncc(C(F)(F)F)c2)s1 [Compound P17, 2-(3-ethylsulfonyl-6-pyrimidin-2-yl-2-pyridyl)-5-[5-(trifluoromethyl)-3-pyridyl]-1,3,4-thiadiazole] | ≥ 80% |  | ≥ 80% |  | 
18 | CCS(=O)(=O)c1cc(C2CC2)cnc1-c1nnc(-c2cc(C(F)(F)F)ccn2)s1 [Compound P18, 2-(5-cyclopropyl-3-ethylsulfonyl-2-pyridyl)-5-[4-(trifluoromethyl)-2-pyridyl]-1,3,4-thiadiazole] | ≥ 80% | ≥ 80% | ≥ 80% |  | 
19 | CCS(=O)(=O)c1cc(C2CC2)cnc1-c1nnc(-c2cncc(C(F)(F)F)c2)s1 [Compound P19, 2-(5-cyclopropyl-3-ethylsulfonyl-2-pyridyl)-5-[5-(trifluoromethyl)-3-pyridyl]-1,3,4-thiadiazole] | ≥ 80% | ≥ 80% | ≥ 80% |  | mortality at 200 ppm [4]: ≥ 80%
20 | CCS(=O)(=O)c1ccc(C2CC2)nc1-c1nnc(-c2cncc(C(F)(F)F)c2)s1 [Compound P20, 2-(6-cyclopropyl-3-ethylsulfonyl-2-pyridyl)-5-[5-(trifluoromethyl)-3-pyridyl]-1,3,4-thiadiazole] | ≥ 80% | ≥ 80% | ≥ 80% |  | 
21 | CCS(=O)(=O)c1cc(C(F)(F)F)cnc1-c1nnc(-c2ccc(C(F)(F)F)nc2)s1 [Compound P21, 2-[3-ethylsulfonyl-5-(trifluoromethyl)-2-pyridyl]-5-[6-(trifluoromethyl)-3-pyridyl]-1,3,4-thiadiazole] |  |  |  | 193 to 195 °C | 
